In patent US20150290200A1, “INTRACELLULAR KINASE INHIBITORS” (Pharmacyclics Inc., priority 2006, published 2015):
Like-named read-outs stand apart in the source and are kept apart here.

Key:
ITK kinase domain = target: T1, ITK kinase domain (Homo sapiens, UniProt Q08881); test: In vitro kinase assay (HITHUNTER enzyme fragment complementation), ITK; format: biochemical
T1 construct: N-terminally His-tagged ITK kinase domain (amino acids 352-617); His (N); made in house
T1 sequence (Q08881 352-617): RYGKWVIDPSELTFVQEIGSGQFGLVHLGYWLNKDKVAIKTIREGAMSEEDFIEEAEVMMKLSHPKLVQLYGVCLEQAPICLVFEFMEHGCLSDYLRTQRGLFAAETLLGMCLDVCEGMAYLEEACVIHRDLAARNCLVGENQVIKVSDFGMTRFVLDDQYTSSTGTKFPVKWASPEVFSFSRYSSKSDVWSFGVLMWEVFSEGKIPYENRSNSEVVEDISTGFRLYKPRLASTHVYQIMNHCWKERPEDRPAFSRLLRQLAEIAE
Experimental: Compounds were screened using the HITHUNTER™ enzyme fragment complementation method (Discoverx). Briefly, a recombinantly produced, N-terminally His-tagged ITK kinase domain (amino acids 352-617) was incubated with various concentrations of individual compounds. ATP and substrate were added, and the kinase reaction was allowed to proceed for 2-16 hours. Commercially available detection reagents were added and allowed to react for 2-4 hours. The reaction was evaluated by luminescence. Initial results were confirmed using full-length recombinant ITK protein.
(§1) In order to confirm the mechanism by which compounds depicted herein interact with the kinase domain of Tec and EGFR kinases, we created a point mutant of the ITK kinase domain, whereby the key amino acid, namely C442 was mutated to alanine. The protein was expressed in a commercial baculovirus expression system using the manufacturer's general protocol (Invitrogen, pBlueBac). Protein was expressed and purified using standard techniques. […] While the activity of WT-ITK was inhibited by compounds depicted in this application, the same compounds had no activity towards the C442A mutant kinase domain.

BTK kinase domain = target: T2, BTK kinase domain (Homo sapiens, UniProt Q06187); test: In vitro kinase assay (HITHUNTER), BTK; format: biochemical
T2 construct: The kinase domains of BTK, LCK and ERK were expressed as recombinant purified proteins; made in house
T2 sequence (Q06187 402-655 limits assumed): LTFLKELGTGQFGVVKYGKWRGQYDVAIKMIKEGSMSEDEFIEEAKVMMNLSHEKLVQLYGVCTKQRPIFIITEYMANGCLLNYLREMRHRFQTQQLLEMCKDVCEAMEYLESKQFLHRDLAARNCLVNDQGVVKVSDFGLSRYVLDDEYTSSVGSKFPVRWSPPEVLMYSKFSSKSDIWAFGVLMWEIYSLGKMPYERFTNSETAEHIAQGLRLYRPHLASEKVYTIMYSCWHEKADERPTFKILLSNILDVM
Excerpt: (§2) Similarly, commercially available reagents such as HITHUNTER™ were used to evaluate the effect of compounds on the activity of additional kinases. The kinase domains of BTK, LCK and ERK were expressed as recombinant purified proteins were used for these studies.

LCK kinase domain = target: T3, LCK kinase domain (Homo sapiens, UniProt P06239); test: In vitro kinase assay (HITHUNTER), LCK; format: biochemical; details: Table 2
T3 construct: The kinase domains of BTK, LCK and ERK were expressed as recombinant purified proteins; made in house
T3 sequence (P06239 245-498 limits assumed, species assumed): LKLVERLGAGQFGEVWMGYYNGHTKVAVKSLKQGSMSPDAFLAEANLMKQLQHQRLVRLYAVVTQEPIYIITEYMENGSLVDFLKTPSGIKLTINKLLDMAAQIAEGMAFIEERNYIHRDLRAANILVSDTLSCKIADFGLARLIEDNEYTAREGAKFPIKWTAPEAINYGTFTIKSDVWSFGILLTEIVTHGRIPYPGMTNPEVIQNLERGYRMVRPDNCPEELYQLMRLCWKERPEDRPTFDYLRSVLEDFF
Excerpt: as §2

[1] = tested on: T cell leukemia/lymphoma cells; test: Mouse in vivo tumor model, peritoneal lavage and FACS analysis; design: species or system NOD/SCID mice; details: ip, intraperitoneal, relative to mock group treated with vehicle, read-out: % inhibition tumor growth
Experimental: Several representative compounds were evaluated for efficacy in mouse in vivo tumor models. NOD/SCID mice were implanted intraperitoneally with T cell leukemia/lymphoma cells. One group was treated with vehicle alone (mock treatment) while the other groups were treated with several small molecule inhibitors via intraperitoneal route. Tumor growth was evaluated by peritoneal lavage and FACS analysis. Table 6 summarizes percent inhibition of tumor growth relative to a mock group treated with vehicle alone.

C442A-ITK kinase domain = target: T4, C442A-ITK kinase domain (Homo sapiens, UniProt Q08881, C442A); test: In vitro kinase assay, C442A point mutant of ITK kinase domain; format: biochemical; details: Table 8
T4 construct: we created a point mutant of the ITK kinase domain; made in house; host or cells: baculovirus expression system (Invitrogen, pBlueBac)
T4 sequence (Q08881 363-615 C442A limits assumed): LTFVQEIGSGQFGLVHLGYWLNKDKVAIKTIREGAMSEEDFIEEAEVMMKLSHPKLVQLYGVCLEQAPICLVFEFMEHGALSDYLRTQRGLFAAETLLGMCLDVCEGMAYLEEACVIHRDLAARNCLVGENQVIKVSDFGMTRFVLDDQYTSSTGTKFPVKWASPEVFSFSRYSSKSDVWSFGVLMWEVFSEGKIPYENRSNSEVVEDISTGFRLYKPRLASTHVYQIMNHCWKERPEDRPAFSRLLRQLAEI
Excerpt: as §1

[2] = Table 8, wild type ITK kinase domain, read-out: IC50 wild-type ITK

IC50 (ITK kinase domain; Table 2, read-out: IC50 ITK) [nM]	IC50 (BTK kinase domain; Table 2) [nM]	IC50 (LCK kinase domain) [nM]	SMILES	other results
385	3920	23300	O=C(CCN1CCOCC1)c1ccc2c(c1)OCO2	
874	2580		O=C(CCN1CCOCC1)c1cc(F)ccc1F	IC50 LCK (LCK kinase domain): NO IC50
		28100	O=C(CCN1CCOCC1)c1ccccc1Cl [drawing 133]	
935	993	29500	O=C(CCN1CCOCC1)c1cc(F)ccc1Cl	
180	1520	164000	Cc1ccc(C(=O)CCN2CCOCC2)cc1	
560	3070	24400	Cc1cccc(C(=O)CCN2CCOCC2)c1	
305	741		O=C(CCN1CCOCC1)c1ccccc1Br	IC50 LCK (LCK kinase domain): NO IC50
25	365		O=C(CCN1CCOCC1)c1cccc(Br)c1	IC50 LCK (LCK kinase domain): NO IC50
1410	4140	27100	O=C(CCN1CCOCC1)c1ccc(N2CCOCC2)cc1	
104	232		O=C(CCN1CCOCC1)c1ccc(Br)cc1	IC50 LCK (LCK kinase domain): NO IC50
207	94.1	18500	O=C(CCN1CCOCC1)c1cccc(Oc2ccccc2)c1	
77	775	47600	O=C(CCN1CCOCC1)c1cccc(Cl)c1	
381	3030	32600	O=C(CCN1CCOCC1)c1cccc(F)c1	
1280	556	705000	CCOc1ccccc1C(=O)CCN1CCOCC1	
219	1310		O=C(CCN1CCOCC1)c1ccc(OC(F)(F)F)cc1	IC50 LCK (LCK kinase domain): NO IC50
148	774	28000	O=C(CCN1CCOCC1)c1cccc(OC(F)(F)F)c1	
290	682	25900	O=C(CCN1CCOCC1)c1ccc(Cl)cc1	
13	1410	27700	O=C(CCN1CCOCC1)c1ccc(F)cc1 [drawing 122]	
56	865		O=C(CCN1CCOCC1)c1ccc(F)cc1F	IC50 LCK (LCK kinase domain): NO IC50

Further lines, the molecule ahead of its results:

SMILES	IC50 (ITK kinase domain; Table 2, read-out: IC50 ITK) [nM]	IC50 (BTK kinase domain; Table 2) [nM]	IC50 (LCK kinase domain) [nM]	other results
O=C1COc2ccc(C(=O)CCN3CCOCC3)cc2N1 [drawing 120]	40	276	2890	
CN(C)C1CCN(CCC(=O)C2=CC3NCC(=O)OC3C=C2)CC1 (stereo not drawn)				inhibition in vivo at 80 mg/kg [1]: 99%
CN(C)c1cccc(C(=O)CCN2CCOCC2)c1	186	3680	20600	
COc1ccc(C(=O)CCN2CCOCC2)cc1OC [drawing 242]				inhibition in vivo at 80 mg/kg [1]: 92 to 99%
O=C(CCN1CCOCC1)c1ccc(F)cc1 [drawing 243]				inhibition in vivo at 80 mg/kg [1]: 50 to 80%
O=C(CCN1CCOCC1)c1ccccc1Cl [drawing 149]				IC50 LCK (LCK kinase domain): NO IC50
O=C1COc2ccc(C(=O)CCN3CCOCC3)cc2N1 [drawing 253]				inhibition in vivo at 20 mg/kg ([1]; 20 mg/kg): 40%
O=C(CCN1CCOCC1)c1ccccc1C(F)(F)F	569	1020		IC50 LCK (LCK kinase domain): NO IC50
O=C(CCN1CCOCC1)c1cccc(C(F)(F)F)c1	43	656	27100	
Cc1ccc(C(=O)CCN2CCOCC2)cc1C	223	1480	21200	
CS(=O)(=O)c1ccc(C(=O)CCN2CCOCC2)cc1	385	753	23900	
CC(=O)Nc1cccc(C(=O)CCN2CCOCC2)c1	65	1240	18400	
COc1ccc(C(=O)CCN2CCOCC2)c(OC)c1	345	3140	21100	
O=C(CCN1CCOCC1)c1ccc(C(F)(F)F)cc1	199	474		IC50 LCK (LCK kinase domain): NO IC50
COc1cccc(C(=O)CCN2CCOCC2)c1	35	942	16400	
O=C(CCN1CCOCC1)c1c(Cl)cccc1Cl	207	80.7		IC50 LCK (LCK kinase domain): NO IC50
Cc1ccccc1C(=O)CCN1CCOCC1	611	2310		IC50 LCK (LCK kinase domain): NO IC50
N#Cc1ccc(C(=O)CCN2CCOCC2)cc1	72	737		IC50 LCK (LCK kinase domain): NO IC50
NC(=O)c1ccc2cc(C(=O)CCN3CCOCC3)ccc2c1 [drawing 259]				IC50 (ITK kinase domain; [2]): 11.1 nM; IC50 (C442A-ITK kinase domain): > 10000 nM
COc1ccc(C(=O)CCN2CCOCC2)cc1OC [drawing 124]	14	1840	23900	
O=C(CCN1CCOCC1)c1cc2ccccc2cn1 [drawing 247]				inhibition in vivo at 80 mg/kg [1]: 92 to 99%
NC(=O)c1ccc2cc(C(=O)CCN3CCOCC3)ccc2c1 [drawing 250]				inhibition in vivo at 30 mg/kg ([1]; 30 mg/kg): 99%

SMILES	IC50 (ITK kinase domain; Table 2, read-out: IC50 ITK) [nM]	IC50 (BTK kinase domain; Table 2) [nM]	IC50 (LCK kinase domain) [nM]	other results
CN(CCC(=O)C1=CC2NCC(=O)OC2C=C1)Cc1ccc(F)cc1 (stereo not drawn)				inhibition in vivo at 80 mg/kg [1]: 90 to 99%
COc1cc(OC)cc(C(=O)CCN2CCOCC2)c1	5	425	12600	
Cc1ccc(C(=O)CCN2CCOCC2)c(C)c1	385	1480	25300	
O=C(CCN1CCOCC1)c1ccc(F)cc1 [drawing 258]				IC50 (ITK kinase domain; [2]): 49.6 nM; IC50 (C442A-ITK kinase domain): > 10000 nM
O=C(CCN1CCOCC1)c1ccc2occc2c1 [drawing 246]				inhibition in vivo at 80 mg/kg [1]: 67 to 81%
O=C(CCN1CCOCC1)c1ccc2c(c1)OCCO2	96	1540	20800	
O=C(CCN1CCOCC1)c1cccc2ccccc12	65	398	23200	
CN(C)C1CCN(CCC(=O)c2ccc3c(c2)NC(=O)CO3)C1 (stereo not drawn)				inhibition in vivo at 100 mg/kg [1]: 99%
COc1ccc(C(=O)CCN2CCC(N(C)C)CC2)cc1OC				inhibition in vivo at 80 mg/kg [1]: 81 to 95%
O=C(CCN1CCOCC1)c1ccc(-c2cccnc2)cc1				inhibition in vivo at 100 mg/kg [1]: 99%
O=C(CCN1CCOCC1)c1ccc(Cl)c(Cl)c1	13	102	34100	
O=C(CCN1CCOCC1)c1ccc(Oc2ccccc2)cc1	91	94.1	18500	
O=C(CCN1CCOCC1)c1ccc2ccccc2c1 [drawing 129]	36	39	20000	
O=C(CCN1CCOCC1)c1ccc(F)cc1C(F)(F)F	468	1220		IC50 LCK (LCK kinase domain): NO IC50
COc1cc2c(cc1OC)CN(CCC(=O)c1ccc3c(c1)NC(=O)CO3)CC2 [drawing 249]				inhibition in vivo at 80 mg/kg [1]: 97 to 99%
O=C(CCN1CCOCC1)c1ccc(F)c(F)c1	208	2890	33100	
N#Cc1cccc(C(=O)CCN2CCOCC2)c1	29	643	413000	
O=C(CCN1CCOCC1)c1ccc2ccccc2c1 [drawing 241]				inhibition in vivo at 100 mg/kg [1]: 85 to 98%
O=C(CCN1CCOCC1)c1ccc(-c2ccccc2)cc1	40.2	36.9	8040	
CN(C)C1CCN(CCC(=O)c2ccc3ccccc3c2)C1 (stereo not drawn) [drawing 240]				inhibition in vivo at 100 mg/kg [1]: 70 to 90%
CN(C)C(=O)N1CCC(CNCCC(=O)c2ccc3ccccc3c2)CC1				IC50 (ITK kinase domain; Table 5, read-out: IC50 ITK): 737 nM; IC50 (BTK kinase domain; Table 5): 373 nM
COc1cc2c(cc1OC)CN(CCC(=O)c1ccc3ccccc3c1)CC2 [drawing 169]				IC50 (ITK kinase domain; Table 3, naphthyl analog, read-out: IC50 ITK): 7 nM; IC50 (BTK kinase domain; Table 3, naphthyl analog): 12.8 nM
